From US8324412B2, “Method for preparing 4-[17β-methoxy-17α-methoxymethyl-3-oxoestra-4,9-dien-11β-yl]benzaldehyde (E)-oxime (asoprisnil)” (Bayer Pharma AG, priority 2006, dated 2012)

Assay: Stability of the prior-art amorphous solid form in the solid pharmaceutical form under ICH accelerated conditions
Assay type: physicochemical
Details: amorphous solid form described in EP 129 26 07, ICH accelerated conditions (40° C., 75% r.h.)
Source text: According to the details disclosed in the literature, it is not possible to prepare the individual intermediates on the manufacturing scale in such a way that the medicinally active asoprisnil and its precursors can be obtained therefrom reliably and reproducibly and having the analytical parameters required by the authorities or by the legislation pursuant to ICH Q6A Guidance, 2000, such as byproduct profile, content of active ingredient, chemical and physical purity, and stability. […] The suitability of the asoprisnil obtainable by this method for a solid pharmaceutical form is accordingly low.

SMILES: COC[C@]1(OC)CC[C@H]2[C@@H]3CCC4=CC(=O)CCC4=C3[C@@H](c3ccc(/C=N/O)cc3)C[C@@]21C [asoprisnil, 4-[17β-methoxy-17α-methoxymethyl-3-oxoestra-4,9-dien-11β-yl]benzaldehyde (E)-oxime]
- Physical stability in the solid pharmaceutical form (recrystallization): partial to complete recrystallization
